ChEMBL document CHEMBL6092156, “Design and development of a series of 4-(piperazin-1-yl)pyrimidines as irreversible menin inhibitors” (Eur J Med Chem, 2024)
In brackets after ≈: the same amount, converted by molar mass. Activity calls are given as the source filed them. The calls are words filed in the database; no cut-off is given here.

Key:
[1] = Suppression of MEN1 gene transcription in human MV4-11 cells assessed as protein synthesis by measuring fold change at 20 nM incubated for 16 hrs relative to control; format: functional
MOLM-14 = experiment: Antiproliferative activity against human MOLM-14 cells harboring MLL-AF9 assessed as cell growth inhibition incubated for 7 days by MTS assay; format: functional, cell-based; details: MOLM-14, 168 h
MV4-11 [2] = experiment: Suppression of MEN1 gene transcription in human MV4-11 cells incubated for 48 hrs by relative gene expression assay; format: functional, cell-based
MV4-11 [3] = experiment: Antiproliferative activity against human MV4-11 cells assessed as reduction in cell viability at 100 nM preincubated for 7 days and followed by compound washout and measured on day 14 after compound readdition; format: functional, cell-based; details: time 21.0 day
REH [4] = experiment: Antiproliferative activity against human menin-insensitive REH cells assessed as inhibition of cell growth incubated for 7 days by MTS assay; format: functional, cell-based; details: 168 h
[5] = Suppression of MEN1 gene transcription in human MV4-11 cells assessed as protein synthesis by measuring fold change at 10 uM incubated for 12 hrs in presence of 50 ug/ml cycloheximide relative to control; format: functional
MV4-11 [6] = experiment: Inhibition of menin protein expression in human MV-4-11 cells measured after 48 hrs incubation by Western blot analysis; format: functional, cell-based; details: dose 1-37 µM
REH [7] = experiment: Downregulation of HOXA9 expression level in human REH cells at 10 uM incubated for 48 hrs by qRT-PCR analysis; format: functional, cell-based
[8] = Observed AUCinfinity in female ICR mouse at 5 mg/kg, ip by LC-MS/MS analysis; format: ADME, organism-based; details: in vivo
MV4-11 [9] = experiment: Antiproliferative activity against human menin-sensitive MV4-11 cells assessed as inhibition of cell growth incubated for 7 days by MTS assay; format: functional, cell-based; details: MV4-11, 168 h
[10] = Suppression of MEN1 gene transcription in human MV4-11 cells assessed as protein synthesis by measuring fold change at 10 uM incubated for 48 hrs in presence of 50 ug/ml cycloheximide relative to control; format: functional
[11] = AUClast in female ICR mouse at 5 mg/kg, ip by LC-MS/MS analysis; format: ADME, organism-based; details: in vivo
[12] = Suppression of MEN1 gene transcription in human MV4-11 cells assessed as protein synthesis by measuring fold change at 10 uM incubated for 36 hrs in presence of 50 ug/ml cycloheximide relative to control; format: functional
[13] = Suppression of MEN1 gene transcription in human MV4-11 cells assessed as protein synthesis by measuring fold change at 10 uM incubated for 48 hrs relative to control; format: functional
[14] = Observed MRTinfinity in female ICR mouse at 5 mg/kg, ip by LC-MS/MS analysis; format: ADME, organism-based; details: in vivo
MV4-11 [15] = experiment: Antitumor activity against human MV4-11 cells xenografted in ip treated nu/nu mouse model assessed as tumor growth inhibition measured upto 15 days; format: functional, organism-based; details: dose 10-20 mg/kg, time <= 15.0 day
MOLM-13 = experiment: Antiproliferative activity against human MOLM-13 cells harboring MLL-AF9 assessed as cell growth inhibition incubated for 7 days by MTS assay; format: functional, cell-based; details: MOLM-13, 168 h
[16] = Tmax in female ICR mouse at 5 mg/kg, ip by LC-MS/MS analysis; format: ADME, organism-based; details: in vivo
MV4-11 [17] = experiment: Antitumor activity against human MV4-11 cells xenografted in nu/nu mouse model assessed as tumor growth rate at 10 mg/kg, ip bid for 15 days measured twice a week during compound dosing by caliper method relative to control; format: functional; details: time 15 day
MV4-11 [18] = experiment: Antiproliferative activity against human MV4-11 cells assessed as reduction in cell viability incubated for 7 days and measured after compound washout; format: functional, cell-based; details: time 7.0 day
RS4-11 = experiment: Antiproliferative activity against human RS4;11 cells harboring MLL-AF4 assessed as cell growth inhibition incubated for 7 days by MTS assay; format: functional, cell-based; details: RS4-11, 168 h
REH [19] = experiment: Antiproliferative activity against human REH cells assessed as cell growth inhibition incubated for 7 days by MTS assay; format: functional, cell-based; details: 168 h
[20] = Suppression of MEN1 gene transcription in human MV4-11 cells assessed as protein synthesis by measuring fold change at 10 uM incubated for 24 hrs in presence of 50 ug/ml cycloheximide relative to control; format: functional
[21] = Suppression of MEN1 gene transcription in human MV4-11 cells assessed as protein synthesis by measuring fold change at 10 uM incubated for 48 hrs in presence of 20 nM carfilzomib relative to control; format: functional
MV4-11 [22] = experiment: Antitumor activity against human MV4-11 cells xenografted in nu/nu mouse model assessed as tumor growth rate at 20 mg/kg, ip bid for 15 days measured twice a week during compound dosing by caliper method relative to control; format: functional; details: time 15 day
REH [23] = experiment: Downregulation of MEIS1 expression level in human REH cells at 10 uM incubated for 48 hrs by qRT-PCR analysis; format: functional, cell-based
MV4-11 [24] = experiment: Antiproliferative activity against human MV4-11 cells harboring MLL-AF4 assessed as cell growth inhibition incubated for 7 days by MTS assay; format: functional, cell-based; details: MV4-11, 168 h
[25] = Toxicity in nu/nu mouse model assessed as body weight loss at 10 to 20 mg/kg, ip bid for 15 days measured twice a week during compound dosing; format: organism-based; details: in vivo, 360 h, dose 10-20 mg/kg, time 15 day
[26] = Half life in female ICR mouse at 5 mg/kg, ip by LC-MS/MS analysis; format: ADME, organism-based; details: in vivo
[27] = Antiproliferative activity against human MINO cells assessed as cell growth inhibition incubated for 7 days by MTS assay; format: functional, cell-based; details: 168 h
[28] = Cmax in female ICR mouse at 5 mg/kg, ip by LC-MS/MS analysis; format: ADME, organism-based; details: in vivo
[29] = molecular target: Menin/Histone-lysine N-methyltransferase MLL (Homo sapiens, UniProt O00255); experiment: Inhibition of menin (unknown origin)/N-terminal FITC-labeled MLL1 peptide (unknown origin) interaction incubated for 30 min by fluorescence polarization assay; format: protein assay
[30] = tested on: Acute myeloid leukemic cell; experiment: Induction of cell differentiation in human acute myeloid leukemia patient-derived cells assessed as increase in CD11b at 150 nM incubated for 7 days by cytoFLEX flow cytometric analysis; format: functional, cell-based; details: time 7.0 day
MV4-11 [31] = experiment: Antiproliferative activity against human MV4-11 cells assessed as reduction in cell viability preincubated for 7 days and followed by compound washout and measured on day 14 after compound readdition; format: functional, cell-based; details: time 21.0 day
[32] = Solubility of compound in water by HPLC analysis; format: physicochemical
HL-60 = experiment: Antiproliferative activity against human HL-60 cells assessed as cell growth inhibition incubated for 7 days by MTS assay; format: functional, cell-based; details: HL-60, 168 h
MV4-11 [33] = experiment: Antiproliferative activity against human MV4-11 cells assessed as reduction in cell viability at 80 nM preincubated for 7 days and followed by compound washout and measured on day 14 after compound readdition relative to control; format: functional; details: time 21 day
MV4-11 [34] = experiment: Downregulation of MEIS1 expression level in human MV4-11 cells at 10 uM incubated for 48 hrs by qRT-PCR analysis; format: functional, cell-based
[35] = Cytotoxicity against human PBMC cells assessed as cell viability incubated for 7 days by MTS assay; format: toxicity, cell-based
MV4-11 [36] = experiment: Antiproliferative activity against human MV4-11 cells assessed as reduction in cell viability at 50 nM incubated for 7 days and measured after compound washout relative to control; format: functional; details: time 7 day
MV4-11 [37] = experiment: Downregulation of HOXA9 expression level in human MV4-11 cells at 10 uM incubated for 48 hrs by qRT-PCR analysis; format: functional, cell-based
[38] = Suppression of MEN1 gene transcription in human MV4-11 cells assessed as protein synthesis by measuring fold change at 50 ug/ml incubated for 48 hrs relative to control; format: functional; details: dose 50 µg/ml
[39] = Suppression of MEN1 gene transcription in human MV4-11 cells assessed as protein synthesis by measuring fold change at 50 ug/ml incubated for 36 hrs relative to control; format: functional; details: dose 50 µg/ml
[40] = Suppression of MEN1 gene transcription in human MV4-11 cells assessed as protein synthesis by measuring fold change at 50 ug/ml incubated for 12 hrs relative to control; format: functional; details: dose 50 µg/ml
[41] = Suppression of MEN1 gene transcription in human MV4-11 cells assessed as protein synthesis by measuring fold change at 50 ug/ml incubated for 24 hrs relative to control; format: functional; details: dose 50 µg/ml
MV4-11 [42] = experiment: Antiproliferative activity against human MV4-11 cells assessed as cell growth inhibition after 4 days; format: functional, cell-based; details: MV4-11, 96 h

Sequence of Menin/Histone-lysine N-methyltransferase MLL (O00255 whole entry): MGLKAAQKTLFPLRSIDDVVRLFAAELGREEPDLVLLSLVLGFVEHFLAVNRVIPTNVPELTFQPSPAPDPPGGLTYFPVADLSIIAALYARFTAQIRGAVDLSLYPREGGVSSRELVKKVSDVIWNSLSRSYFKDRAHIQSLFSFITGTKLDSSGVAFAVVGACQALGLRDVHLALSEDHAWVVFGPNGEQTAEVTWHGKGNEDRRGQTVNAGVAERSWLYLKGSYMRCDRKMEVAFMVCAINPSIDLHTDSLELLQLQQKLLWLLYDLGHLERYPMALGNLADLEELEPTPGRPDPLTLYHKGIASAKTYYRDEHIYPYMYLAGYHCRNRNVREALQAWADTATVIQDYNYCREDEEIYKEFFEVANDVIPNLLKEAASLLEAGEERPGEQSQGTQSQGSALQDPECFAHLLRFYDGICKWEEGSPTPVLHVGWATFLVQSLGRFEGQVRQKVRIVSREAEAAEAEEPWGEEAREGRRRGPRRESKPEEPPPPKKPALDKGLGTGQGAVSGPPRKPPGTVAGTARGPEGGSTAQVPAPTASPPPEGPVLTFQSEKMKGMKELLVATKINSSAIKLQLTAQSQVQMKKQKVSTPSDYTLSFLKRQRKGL
Sequence of Menin/Histone-lysine N-methyltransferase MLL (Q03164 1-2718 partner limits assumed): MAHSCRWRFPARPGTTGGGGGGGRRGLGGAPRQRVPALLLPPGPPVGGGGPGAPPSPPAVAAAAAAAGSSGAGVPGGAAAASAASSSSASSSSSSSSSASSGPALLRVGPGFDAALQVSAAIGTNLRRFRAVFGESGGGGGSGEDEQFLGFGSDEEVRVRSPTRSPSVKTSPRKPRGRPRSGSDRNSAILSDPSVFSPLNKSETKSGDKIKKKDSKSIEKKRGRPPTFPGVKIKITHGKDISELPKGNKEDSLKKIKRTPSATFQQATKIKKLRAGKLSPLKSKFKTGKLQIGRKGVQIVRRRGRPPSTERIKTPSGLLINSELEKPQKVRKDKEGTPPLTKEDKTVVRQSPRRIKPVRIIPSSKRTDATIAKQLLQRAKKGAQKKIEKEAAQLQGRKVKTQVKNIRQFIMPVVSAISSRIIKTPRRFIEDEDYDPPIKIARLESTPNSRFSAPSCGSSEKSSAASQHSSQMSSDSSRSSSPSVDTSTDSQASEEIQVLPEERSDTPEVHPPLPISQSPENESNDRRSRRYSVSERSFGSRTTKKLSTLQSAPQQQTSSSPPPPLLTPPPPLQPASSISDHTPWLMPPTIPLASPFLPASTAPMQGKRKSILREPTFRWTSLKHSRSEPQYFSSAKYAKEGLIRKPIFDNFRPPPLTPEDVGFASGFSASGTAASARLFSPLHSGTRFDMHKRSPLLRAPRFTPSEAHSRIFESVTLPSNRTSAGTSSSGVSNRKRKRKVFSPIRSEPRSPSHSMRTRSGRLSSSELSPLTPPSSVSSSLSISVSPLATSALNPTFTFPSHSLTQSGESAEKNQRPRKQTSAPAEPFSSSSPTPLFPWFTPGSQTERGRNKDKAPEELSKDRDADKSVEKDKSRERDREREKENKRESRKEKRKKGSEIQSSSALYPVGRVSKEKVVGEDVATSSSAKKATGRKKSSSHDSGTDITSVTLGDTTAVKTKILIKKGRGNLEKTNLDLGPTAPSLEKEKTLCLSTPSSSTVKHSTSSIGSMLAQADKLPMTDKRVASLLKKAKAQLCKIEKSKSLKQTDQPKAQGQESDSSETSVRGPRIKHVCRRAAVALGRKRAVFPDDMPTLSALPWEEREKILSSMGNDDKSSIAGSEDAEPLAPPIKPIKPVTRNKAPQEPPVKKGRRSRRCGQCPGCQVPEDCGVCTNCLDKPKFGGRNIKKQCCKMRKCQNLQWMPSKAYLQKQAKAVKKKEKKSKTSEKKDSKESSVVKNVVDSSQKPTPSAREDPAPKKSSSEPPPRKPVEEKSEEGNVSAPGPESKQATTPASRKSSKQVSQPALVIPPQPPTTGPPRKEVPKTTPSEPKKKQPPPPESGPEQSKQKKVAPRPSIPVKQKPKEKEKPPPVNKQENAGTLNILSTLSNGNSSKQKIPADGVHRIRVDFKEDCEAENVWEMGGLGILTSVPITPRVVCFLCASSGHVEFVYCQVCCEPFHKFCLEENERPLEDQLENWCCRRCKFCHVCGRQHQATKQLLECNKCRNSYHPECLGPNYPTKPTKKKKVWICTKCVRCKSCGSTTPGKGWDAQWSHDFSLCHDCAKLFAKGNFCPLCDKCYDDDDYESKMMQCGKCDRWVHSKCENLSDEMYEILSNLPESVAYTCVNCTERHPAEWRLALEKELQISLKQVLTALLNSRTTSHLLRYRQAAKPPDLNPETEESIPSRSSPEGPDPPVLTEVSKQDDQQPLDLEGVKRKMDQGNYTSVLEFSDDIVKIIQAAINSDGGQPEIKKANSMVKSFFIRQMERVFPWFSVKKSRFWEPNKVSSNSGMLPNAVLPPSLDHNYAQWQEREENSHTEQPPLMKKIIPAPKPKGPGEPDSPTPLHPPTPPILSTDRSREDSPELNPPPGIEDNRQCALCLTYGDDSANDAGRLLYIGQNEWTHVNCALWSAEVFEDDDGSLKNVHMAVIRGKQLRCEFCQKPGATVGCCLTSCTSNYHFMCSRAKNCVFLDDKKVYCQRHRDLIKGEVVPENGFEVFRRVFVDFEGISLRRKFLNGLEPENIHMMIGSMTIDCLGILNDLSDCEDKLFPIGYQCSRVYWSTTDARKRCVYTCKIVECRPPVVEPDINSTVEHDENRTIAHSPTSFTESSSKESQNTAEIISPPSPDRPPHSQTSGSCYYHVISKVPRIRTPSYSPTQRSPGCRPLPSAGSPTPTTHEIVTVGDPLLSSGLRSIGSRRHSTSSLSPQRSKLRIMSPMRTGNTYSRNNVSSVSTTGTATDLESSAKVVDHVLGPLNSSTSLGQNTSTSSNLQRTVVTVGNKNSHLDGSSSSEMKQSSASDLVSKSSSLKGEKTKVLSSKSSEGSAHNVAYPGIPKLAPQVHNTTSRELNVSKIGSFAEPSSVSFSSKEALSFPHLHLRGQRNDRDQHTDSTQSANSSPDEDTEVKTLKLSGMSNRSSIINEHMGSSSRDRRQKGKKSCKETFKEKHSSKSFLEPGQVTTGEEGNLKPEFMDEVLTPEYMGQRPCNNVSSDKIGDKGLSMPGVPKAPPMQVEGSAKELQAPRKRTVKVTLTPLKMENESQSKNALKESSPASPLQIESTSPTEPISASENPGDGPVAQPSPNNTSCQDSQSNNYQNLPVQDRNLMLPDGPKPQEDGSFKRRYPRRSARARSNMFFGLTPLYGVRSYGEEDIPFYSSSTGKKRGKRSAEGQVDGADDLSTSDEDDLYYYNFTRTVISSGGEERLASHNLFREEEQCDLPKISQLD
Sequence of Menin/Histone-lysine N-methyltransferase MLL (Q03164 2719-3969 partner limits assumed): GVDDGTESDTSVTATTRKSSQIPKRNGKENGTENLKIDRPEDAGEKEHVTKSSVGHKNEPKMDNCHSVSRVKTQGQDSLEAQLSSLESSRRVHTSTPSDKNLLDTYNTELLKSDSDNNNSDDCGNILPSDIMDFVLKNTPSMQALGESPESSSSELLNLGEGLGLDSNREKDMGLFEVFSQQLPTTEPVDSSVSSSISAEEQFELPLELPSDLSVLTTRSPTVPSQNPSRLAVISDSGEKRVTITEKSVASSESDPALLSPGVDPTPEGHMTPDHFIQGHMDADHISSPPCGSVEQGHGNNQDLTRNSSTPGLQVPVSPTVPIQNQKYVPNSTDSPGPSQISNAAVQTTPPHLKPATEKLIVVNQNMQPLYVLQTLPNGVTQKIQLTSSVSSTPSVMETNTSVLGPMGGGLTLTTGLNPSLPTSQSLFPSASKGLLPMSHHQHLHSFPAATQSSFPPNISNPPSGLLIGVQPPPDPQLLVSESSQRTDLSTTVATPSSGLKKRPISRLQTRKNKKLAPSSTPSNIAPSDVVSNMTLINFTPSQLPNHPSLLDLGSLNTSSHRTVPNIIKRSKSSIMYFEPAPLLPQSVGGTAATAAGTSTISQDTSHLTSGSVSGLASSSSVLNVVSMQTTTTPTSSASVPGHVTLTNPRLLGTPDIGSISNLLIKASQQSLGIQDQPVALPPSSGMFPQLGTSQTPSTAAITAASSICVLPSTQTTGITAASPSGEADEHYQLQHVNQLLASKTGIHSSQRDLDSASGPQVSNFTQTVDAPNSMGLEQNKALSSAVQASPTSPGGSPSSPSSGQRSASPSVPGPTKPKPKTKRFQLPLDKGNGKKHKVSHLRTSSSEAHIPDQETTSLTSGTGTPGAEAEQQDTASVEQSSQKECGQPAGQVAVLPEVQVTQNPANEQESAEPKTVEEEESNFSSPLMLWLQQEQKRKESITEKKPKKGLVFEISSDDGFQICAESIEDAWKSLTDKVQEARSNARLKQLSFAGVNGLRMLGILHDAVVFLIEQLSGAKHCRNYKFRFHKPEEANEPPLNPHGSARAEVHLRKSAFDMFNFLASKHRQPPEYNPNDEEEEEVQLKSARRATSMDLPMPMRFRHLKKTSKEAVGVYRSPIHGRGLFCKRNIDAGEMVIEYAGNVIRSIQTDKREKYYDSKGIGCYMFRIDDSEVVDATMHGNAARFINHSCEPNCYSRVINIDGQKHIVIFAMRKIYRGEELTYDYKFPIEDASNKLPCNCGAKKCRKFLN

CC(C)C[C@H](NC(=O)[C@H](CCc1ccccc1)NC(=O)CN1CCOCC1)C(=O)N[C@@H](Cc1ccccc1)C(=O)N[C@@H](CC(C)C)C(=O)[C@@]1(C)CO1 [CARFILZOMIB]
fold change (FC) [1]: 1.16

CCN(C(=O)c1cc(F)ccc1Nc1cncnc1N1CCN(CC2CN(c3ccc(S(=O)(=O)C4CN(C(=O)/C=C/CN(C)C)C4)cc3)C2)C(C)C1)C(C)C (stereo unspecified)
IC50 (MOLM-14): 103 nM
Activity (MV4-11 [2]): Active
Activity (MV4-11 [3]): Active
IC50 (REH [4]): 8400 nM
fold change (FC) [5]: 0.69
Activity (MV4-11 [6]): Dose-dependent-effect; Significantly Greater Inhibition At 10 Um Than That Of Sndx-5613
Activity (REH [7]): Active; Little Impact Observed
AUC(0-inf) [8]: 1230 ng·h/mL
IC50 (MV4-11 [9]): 30 nM
fold change (FC) [10]: 0.25
AUC(0-t) [11]: 1150 ng·h/mL
fold change (FC) [12]: 0.21
fold change (FC) [13]: 0.08
MRT inf [14]: 1.85 h
Activity (MV4-11 [15]): Dose-dependent-effect
IC50 (MOLM-13): 221 nM
Tmax [16]: 0.25 h
Activity (MV4-11 [17]): 55.64%
Activity (MV4-11 [18]): inactive
IC50 (RS4-11): 272 nM
IC50 (REH [19]): > 3000 nM
fold change (FC) [20]: 0.31
fold change (FC) [21]: 0.14
Activity (MV4-11 [22]): 35.85%
Activity (REH [23]): Active; Little Impact Observed
IC50 (MV4-11 [24]): 49 nM
Activity [25]: Non-toxic
half-life [26]: 1.59 h
IC50 [27]: > 3000 nM
Cmax [28]: 980 ng/mL
IC50 [29]: 18.2 nM
Activity [30]: Active
Activity (MV4-11 [31]): Dose-dependent-effect
solubility [32]: 1230 µg/mL (≈ 1590 µM)
IC50 (HL-60): > 3000 nM
Activity (MV4-11 [33]): 100%
Activity (MV4-11 [34]): Active
IC50 at 7 days [35]: > 3000 nM
Activity (MV4-11 [36]): 100%
Activity (MV4-11 [37]): Active

C[C@@H]1C[C@@H]([C@H](O)CC2CC(=O)NC(=O)C2)C(=O)[C@@H](C)C1 [CYCLOHEXIMIDE]
fold change (FC) [38]: 0.007
fold change (FC) [39]: 0.007
fold change (FC) [40]: 0.55
fold change (FC) [41]: 0.41

COC(=O)N[C@H]1CCC[C@@H]1[C@](C#N)(c1cccc(F)c1)C1CCN(CC2CN(c3ccc(S(=O)(=O)C4CN(C(=O)/C=C/CN(C)C)C4)cc3)C2)CC1
IC50 (MV4-11 [42]): 2.7 nM
